Experimental data published in publication PMC4977651, “Molecular features of biguanides required for targeting of mitochondrial respiratory complex I and activation of AMP-kinase” (BMC Biology, 2016).

Columns and labels:
143B cells = experiment: Rotenone-sensitive oxygen consumption rate in intact 143B cells; type: cell-based, human
Procedure: 143B (CRL-8303 from ATCC), HepG2 (85011430 from The Health Protection Agency), and MDBK (CCL-22 from ATCC) cells were grown on Dulbecco’s modified Eagle’s medium (DMEM) supplemented with 10 % fetal bovine serum (FBS, Thermo Fisher Scientific) at 37 °C in 5 % CO2. All cells were confirmed as negative for mycoplasma.
Oxygen consumption rates (OCRs) were measured using a Seahorse XF96 extracellular flux analyzer at 37 °C. For intact cell measurements, 1.4 × 10^4 143B, HepG2, or MDBK cells were plated (per well) in DMEM containing 10 % FBS into Seahorse Bioscience Inc. XF96 plates and incubated for ~12 h at 37 °C in 5 % CO2. Then, the medium was exchanged for assay buffer containing DMEM, 4.5 g L^−1 glucose, 1 mM pyruvate, 32 mM NaCl, 2 mM GlutaMAX, 15 mg L^−1 phenol red, and 20 mM HEPES (pH 7.4 at 37 °C) and the cells placed in a CO2-free incubator at 37 °C for 30 min. Basal oxygen consumption rates were established before the addition of biguanides at one-tenth of their IC50 (IC50/10), and followed for ~ 6 h before the addition of rotenone (2 μM).
Rotenone-sensitive OCRs were calculated by subtracting the rotenone-insensitive rates (determined at the end of the experiment). OCRs were normalized by dividing by the OCR recorded immediately prior to the addition of biguanide. For rate of uptake calculations, the OCRs at time points after biguanide addition were divided by the OCRs at the same time points in control experiments. Data from wells with failed port injections were excluded from the analyses. The respiratory control ratio (RCR) values (state III versus state IV respiration) were ~11 and ~6 for permeabilized MDBK and 143B cells, respectively.

[1] = target: isolated bovine heart complex I (Bos taurus, UniProt P03887+P03898+P17694+P42026); experiment: NADH:decylubiquinone oxidoreduction by isolated complex I; type: biochemical; conditions: bovine heart purified mitochondrial complex I
Chain of isolated bovine heart complex I (P42026 38-216): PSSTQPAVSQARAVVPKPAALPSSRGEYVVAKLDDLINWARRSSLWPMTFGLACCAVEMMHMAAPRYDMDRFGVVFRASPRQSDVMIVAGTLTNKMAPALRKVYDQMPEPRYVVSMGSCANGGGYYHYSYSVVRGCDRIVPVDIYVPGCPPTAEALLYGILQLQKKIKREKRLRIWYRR
Chain of isolated bovine heart complex I (P17694 34-463): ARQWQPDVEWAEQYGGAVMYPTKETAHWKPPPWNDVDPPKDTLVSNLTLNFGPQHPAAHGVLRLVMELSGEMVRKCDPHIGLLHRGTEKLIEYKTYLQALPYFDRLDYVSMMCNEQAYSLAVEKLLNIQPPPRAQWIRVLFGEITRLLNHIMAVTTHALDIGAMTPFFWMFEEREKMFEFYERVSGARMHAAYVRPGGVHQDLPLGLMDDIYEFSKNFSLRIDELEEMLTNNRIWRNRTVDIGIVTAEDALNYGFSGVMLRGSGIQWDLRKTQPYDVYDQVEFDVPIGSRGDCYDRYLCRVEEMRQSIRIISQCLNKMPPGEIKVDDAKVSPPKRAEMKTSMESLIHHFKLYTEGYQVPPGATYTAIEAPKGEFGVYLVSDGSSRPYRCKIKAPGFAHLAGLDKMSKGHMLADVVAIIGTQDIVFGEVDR
Chain of isolated bovine heart complex I (P03898 whole entry): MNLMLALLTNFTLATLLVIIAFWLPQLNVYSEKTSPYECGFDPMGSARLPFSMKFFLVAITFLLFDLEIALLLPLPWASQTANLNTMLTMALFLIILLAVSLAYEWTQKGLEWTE
Chain of isolated bovine heart complex I (P03887 whole entry): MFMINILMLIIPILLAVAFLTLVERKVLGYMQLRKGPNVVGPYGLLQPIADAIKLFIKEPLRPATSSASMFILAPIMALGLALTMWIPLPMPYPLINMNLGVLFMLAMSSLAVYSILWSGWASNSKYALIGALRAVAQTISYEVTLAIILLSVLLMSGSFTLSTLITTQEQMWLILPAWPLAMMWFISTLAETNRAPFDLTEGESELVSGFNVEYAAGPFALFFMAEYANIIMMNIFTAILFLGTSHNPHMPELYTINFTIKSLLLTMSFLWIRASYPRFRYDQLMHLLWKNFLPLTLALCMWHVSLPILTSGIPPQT
Procedure: Complex I and mitochondrial membranes were prepared from Bos taurus (bovine) heart. Intact mitochondria were isolated from rat liver and mouse heart and liver. Membranes were prepared from mouse heart mitochondria by 5 s bursts of sonication at 4 °C and collected by centrifugation (75,000 × g, 1 h).
(§1) Assays were performed at 32 °C in a SpectraMax 96-well plate reader. NADH:decylubiquinone oxidoreduction by complex I at 0.5 μg mL^−1 was measured in 20 mM Tris-HCl (pH 7.2), 0.15 % soy bean asolectin (Avanti Polar Lipids), and 0.15 % 3-((3-cholamidopropyl)dimethylammonium)-1-propanesulfonate (CHAPS, Merck Chemicals Ltd), with 200 μM decylubiquinone and 200 μM NADH, and monitored using ε340–380(NADH) = 4.81 mM^−1 cm^−1 [23]. Catalysis was initiated by addition of NADH and maximal rates determined by linear regression. NADH:O2 oxidoreduction by membranes was measured similarly but using 5 μg mL^−1 membranes in 10 mM Tris-HCl (pH 7.4) and 250 mM sucrose using 200 μM NADH and supplemented with 0.15 mM horse heart cytochrome c (Sigma-Aldrich Ltd.). Succinate:O2 oxidoreduction was measured using 40 μg mL^−1 membranes in 5 mM succinate in 10 mM Tris-HCl (pH 7.4) as described previously. Control experiments included NaCl (to match the ionic strength) or DMSO, as appropriate.
Experimental values are reported as mean averages ± standard deviation (SD) of technical replicates for large sample sizes and mean averages ± standard error of the mean (SEM) of technical replicates for small sample sizes. Data were analyzed by the unpaired two-tailed Student’s t test. IC50 values were determined using the standard dose-effect relationship (activity (%) = 100 × IC50 / (IC50 + [inhibitor]^m) with the Hill Slope (m) set to unity for purified complex I) and are reported with 95 % confidence intervals.

[2] = target: bovine heart mitochondrial membranes (complex I) (Bos taurus, UniProt P03887+P03898+P17694+P42026); experiment: NADH:O2 oxidoreduction by bovine heart mitochondrial membranes (complexes I-III-IV); type: biochemical
Chain of bovine heart mitochondrial membranes (complex I) (P42026 38-216): as the sequence (P42026 38-216) above
Chain of bovine heart mitochondrial membranes (complex I) (P17694 34-463): as the sequence (P17694 34-463) above
Chain of bovine heart mitochondrial membranes (complex I) (P03887 whole entry): as the sequence (P03887 whole entry) above
Chain of bovine heart mitochondrial membranes (complex I) (P03898 whole entry): as the sequence (P03898 whole entry) above
Summary of the method: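 At 32 °C, rates were taken by linear regression of NADH absorbance loss after NADH start. Isolated enzyme (0.5 μg mL^−1): 200 μM decylubiquinone, 200 μM NADH, pH 7.2 Tris with 0.15 % asolectin and CHAPS. Membranes (5 μg mL^−1): 200 μM NADH, 0.15 mM cytochrome c, pH 7.4 Tris-sucrose. IC50s carry 95 % confidence intervals.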

[3] = Octanol/PBS partition coefficient, shake-flask method; type: physicochemical; conditions: 32 °C, pH 7.4, n = 3
Procedure: Octanol/PBS partition coefficients were measured by the shake-flask method at 32 °C, pH 7.4.

[4] = test system: bovine mitochondrial membranes (complexes II-III-IV); experiment: Succinate:O2 oxidoreduction (complexes II-III-IV, complex II assay) by bovine mitochondrial membranes; type: biochemical, Bos taurus; conditions: biguanide concentrations set to the IC50 values for NADH:O2 on bovine membranes; control = 100.00; n = 3
Procedure: as §1

AMPK-α (phospho-Thr172) = experiment: AMPK activation, western blot of phospho-AMPK-α in MDBK cells; type: cell-based, Bos taurus; conditions: for p-alpha: band intensity
Procedure: MDBK cells were seeded at 1 × 10^6 cells per 6 cm dish in DMEM containing 10 % FBS. […] After 18 h cells were harvested by a rapid lysis procedure: cells were rinsed with PBS, then lysed using ice-cold buffer containing 50 mM HEPES, 1 mM EDTA, 10 % glycerol, 50 mM NaF, 5 mM sodium pyrophosphate, 1 % Triton-X100, 1 mM dithiothreitol (DTT), and a protease inhibitor cocktail (Roche). The cell lysate was centrifuged at 14,000 × g for 20 min at 4 °C and the protein concentration of the supernatant determined by bicinchoninic acid assay. The lysate was analyzed using Novex 3–12 % bis-Tris gels run in 3-(N-morpholino)propanesulfonic acid (MOPS) buffer (20 μg of protein per lane) followed by transfer to low fluorescence polyvinylidene fluoride membranes by wet transfer. Primary rabbit antibodies for AMPK-β (57C12), AMPK-α (phospho-Thr172) (40H9), and acetyl-coA carboxylase (phospho-Ser79) (Cell Signaling Technology) were incubated overnight with the membrane (1:1000 dilution) in Odyssey blocking buffer at 4 °C. A fluorescent secondary antibody was used (IRDYE800CW from LI-COR Biosciences, 1:20,000 dilution) with a LI-COR Odyssey imaging system.

For `NC(N)=NC(N)=NCc1ccccc1` [compound 3, 2-benzyl-1-(diaminomethylidene)guanidine], the “rotenone sensitive OCR after 6 hours of biguanide exposure, % control, average” value (143B cells; 143B cells, biguanide at IC50/10) was 3.11 % control, the “rotenone sensitive OCR after 6 hours of biguanide exposure, average” value (143B cells; 143B cells, biguanide at IC50/10, OCR normalized to OCR immediately prior to biguanide addition) was 3.64 and the “inhibition of rotenone-sensitive respiration (in words)” value (143B cells; intact 143B cells, biguanide at IC50/10, monitored for 6 h) was “inhibit respiration”. The “HillSlope (best fit value)” value ([1]; Prism fit, no std. error) was 1, the IC50 ([1]; Prism log(inhibitor) vs. response fit, Bottom 0, Top 100, read-out: IC50 (best fit value)) was 567 µM and the remaining activity at 100 µM ([1]; inhibitor 0.10 mM, read-out: average % (rate, % of no-inhibitor control)) was 80%. For the same compound, the remaining activity at 200 µM ([1]; inhibitor 0.20 mM, read-out: average % (rate, % of no-inhibitor control)) was 65.6%, the remaining activity at 500 µM ([1]; inhibitor 0.50 mM, read-out: average % (rate, % of no-inhibitor control)) was 52.1% and the remaining activity at 1000 µM ([1]; inhibitor 1.00 mM, read-out: average % (rate, % of no-inhibitor control)) was 41%. The remaining activity at 2000 µM ([1]; inhibitor 2.00 mM, read-out: average % (rate, % of no-inhibitor control)) was 27.6%, the remaining activity at 5000 µM ([1]; inhibitor 5.00 mM, read-out: average % (rate, % of no-inhibitor control)) was 15.6% and the remaining activity at 10000 µM ([1]; inhibitor 10.00 mM, read-out: average % (rate, % of no-inhibitor control)) was 4.7%. For the same compound, the “LogIC50 (best fit value)” value ([1]; log of IC50 in mM, Prism fit) was -0.2463, the remaining activity at 50 µM ([2]; bovine heart mitochondrial membranes, inhibitor 0.05 mM, read-out: average % (rate, % of no-inhibitor control)) was 88.7% and the remaining activity at 120 µM ([2]; bovine heart mitochondrial membranes, inhibitor 0.12 mM, read-out: average % (rate, % of no-inhibitor control)) was 76.2%. It also gave a remaining activity at 250 µM ([2]; bovine heart mitochondrial membranes, inhibitor 0.25 mM, read-out: average % (rate, % of no-inhibitor control)) of 69.2%, a remaining activity at 500 µM ([2]; bovine heart mitochondrial membranes, inhibitor 0.50 mM, read-out: average % (rate, % of no-inhibitor control)) of 55.6% and a remaining activity at 1250 µM ([2]; bovine heart mitochondrial membranes, inhibitor 1.25 mM, read-out: average % (rate, % of no-inhibitor control)) of 44.4%. The remaining activity at 2500 µM ([2]; bovine heart mitochondrial membranes, inhibitor 2.50 mM, read-out: average % (rate, % of no-inhibitor control)) was 37.2%, the remaining activity at 5000 µM ([2]; bovine heart mitochondrial membranes, inhibitor 5.00 mM, read-out: average % (rate, % of no-inhibitor control)) was 31.2% and the “LogIC50 (best fit value)” value ([2]; log of concentration in mM, sample given as Bovine heart mitochondrial membranes, Prism variable slope fit, Bottom 0, Top 100) was -0.01339. For the same compound, the IC50 ([2]; sample given as Bovine heart mitochondrial membranes, Prism log(inhibitor) vs. response variable slope fit (four parameters), Bottom 0, Top 100, read-out: IC50 (best fit value)) was 970 µM, the “HillSlope (best fit value)” value ([2]; sample given as Bovine heart mitochondrial membranes, Prism variable slope fit, Bottom 0, Top 100) was -0.5756 and the “P (partition coefficient)” value [3] was 0.184. The logP [3] was -0.734, the “Complex II assay (succinate:O2 oxidoreduction), average” value [4] was 97.37 and the “p-alpha, average normalised to control” value (AMPK-α (phospho-Thr172); Averages of experiments 1-3, 18 hours) was 10.88. For the same compound, the “p-alpha / AMPK beta” value (AMPK-α (phospho-Thr172); Experiment 1, 18 hours) was 1.27, the “p-alpha / AMPK beta normalised to control” value (AMPK-α (phospho-Thr172); Experiment 1, 18 hours) was 10.17 and the p-alpha (AMPK-α (phospho-Thr172); Experiment 1, 18 hours) was 594. For the same compound, the “p-alpha / AMPK beta” value (AMPK-α (phospho-Thr172); Experiment 2, 18 hours) was 1.33, the “p-alpha / AMPK beta normalised to control” value (AMPK-α (phospho-Thr172); Experiment 2, 18 hours) was 9.10 and the p-alpha (AMPK-α (phospho-Thr172); Experiment 2, 18 hours) was 402. The “p-alpha / AMPK beta” value (AMPK-α (phospho-Thr172); Experiment 3, 18 hours) was 2.78, the “p-alpha / AMPK beta normalised to control” value (AMPK-α (phospho-Thr172); Experiment 3, 18 hours) was 13.38 and the p-alpha (AMPK-α (phospho-Thr172); Experiment 3, 18 hours) was 628.
